{
  "source": "patent US10604523B2",
  "about": "“1-aryl-4-methyl-[1,2,4]triazolo[4,3-a]quinoxaline derivatives” (Janssen Pharmaceutica NV, priority 2011, dated 2020)",
  "key": {"[1]": {"experiment": "Biodistribution study of [18F]B-23", "conditions": "mean ± SD, n = 3", "protocol": "(§2) The biodistribution study was carried out in male Wistar rats (body weight 320-370 g) at 2 min, 10 min and 30 min post injection (p.i.) (n=3/time point). […] Blood and major organs were collected in tared tubes and weighed. The radioactivity in blood, organs and other body parts was measured using an automated gamma counter. The distribution of radioactivity in different parts of the body at different time points p.i. of the tracer was calculated and expressed as percentage of injected dose (% ID), and as standardized uptake values (SUV) for the selected organs. % ID is calculated as counts per minute (cpm) in organ/total cpm recovered. SUVs are calculated as (radioactivity in cpm in organ/weight of the organ in g)/(total counts recovered/body weight in g). For calculation of total radioactivity in blood, blood mass was assumed to be 7% of the body mass."}, "[2]": {"experiment": "Plasma radiometabolite analysis of [18F]B-23", "format": "in vivo, rat", "conditions": "for recovered radioactivity present as intact tracer in plasma: n=1", "method": "(§1) The metabolic stability of the tracer was studied in normal rats by determination of the relative amounts of parent tracer and radiometabolites in plasma and brain at 2 min and 10 min p.i. of the tracer. […] (n=1), blood was collected in lithium heparin containing tubes (4.5 mL LH PST tubes; BD vacutainer, BD, Franklin Lakes, USA) and stored on ice. Brain was dissected and rinsed with saline (decapitation was preferred since it was difficult to have the rat perfused already at 2 min p.i.). For the 10 min timepoint, rats (n=1) were injected with about 37 MBq of tracer and sacrificed at 10 min p.i by administering an overdose of Nembutal (CEVA Sante Animale, 200 mg/kg intraperitoneal). The rats were perfused by injection of saline into the left ventricle until the liver turned pale. During perfusion, blood was collected and stored on ice. Brain was isolated.\nFor the plasma radiometabolite analysis, the blood was centrifugated for 10 min at 3000 rpm to separate the plasma. A volume of about 0.1 mL of plasma sample was isolated and spiked with about 10 μL of authentic non-radioactive reference material (1 mg/mL) for identification. The plasma was then injected onto an HPLC system consisting of a Chromolith Performance column (C18, 3 mm×100 mm, Merck) that was eluted with mixtures of 0.05 M NaOAc pH 5.5 (solvent A) and acetonitrile (solvent B). The following method was used for the analysis: isocratic elution with 100% A for 4 min at a flow rate of 0.5 mL/min, then linear gradient to 90% B by 14 min at a flow rate of 1 mL/min, and isocratic elution with a mixture of 10% A and 90% B at a flow rate of 1 mL/min until 17 min. After passing through an in-line UV detector (254 nm) and over a 3 in. NaI(Tl) scintillation detector connected to a single channel analyzer (Gabi box, Raytest, Straubenhardt Germany), the HPLC eluate was collected per minute using an automatic fraction collector. The radioactivity in all fractions was measured using an automated gamma counter. The peak corresponding to the intact tracer eluted at ˜11 min. Polar radiometabolite(s) were eluting from 1 to 3 min. Slightly more polar radiometabolites (relatively to the polarity of the intact tracer) were eluting just before the intact tracer. Faster metabolisation is observed in plasma compared to brain. At 2 min p.i., about 70% of the recovered radioactivity was present as intact tracer. Two more polar radiometabolites (M1, M3) were observed of which one (M3) was closely eluting to the intact tracer. At 10 min p.i., the presence of a large amount of a third polar metabolite (M2, also closely eluting to the parent compound) was observed which accounted for about 60% of the recovered radioactivity. At 10 min p.i., only ˜20% of the recovered radioactivity was still present as intact tracer."}, "[3]": {"conditions": "male, Wistar, rat, in vivo", "protocol": "as §2"}, "[4]": {"experiment": "Brain radiometabolite analysis of [18F]B-23", "format": "in vivo, rat", "method": "as §1\nFor the brain radiometabolite analysis, cerebrum and cerebellum were separated and homogenized in 3 mL and 2 mL of acetonitrile respectively, for about 3 min. A volume of 1 mL of this homogenate was diluted with an equal volume of water and 1 mL of the supernatant was filtered through a 0.22 μm filter (Millipore, Bedford, USA). About 0.5 mL of the filtrate was diluted with 0.1 mL of water and spiked with 10 μL of authentic reference material (1 mg/mL) for identification. A volume of 0.5 mL of the homogenate extracts were injected onto an HPLC system consisting of an analytical XBridge column (C18, 3.5 μm, 3 mm×100 mm, Waters) eluted with a mixture of 0.05 M sodium acetate (pH 5.5) and CH3CN (76:24 v/v) at a flow rate of 0.8 mL/min. The HPLC eluate was collected as 0.8-mL fractions (fraction collection per minute) after passing through the UV detector (254 nm), and radioactivity in the fractions was measured using an automated gamma counter. The peak corresponding to the intact tracer eluted around 10 min, the polar radiometabolite(s) around 5 min."}},
  "note": "Where two headings read alike, the source gives them in different places.",
  "data": [
    {"compound": "Cc1nc2ccc(CN3CCOCC3)cc2n2c(-c3c([18F])cccc3Cl)nnc12", "note": "[[^18F]B-23, 1-(2-Chloro-6-[^18F]fluorophenyl)-4-methyl-8-(morpholin-4-ylmethyl)[1,2,4]triazolo[4,3-a]quinoxaline]", "values": [
      {"measurement": "SUV Blood", "setting": "[1]; 2 min p.i.", "value": "0.96 ± 0.05"},
      {"measurement": "SUV Cerebellum", "setting": "[1]; 2 min p.i.", "value": "1.22 ± 0.23"},
      {"measurement": "SUV Cortex", "setting": "[1]; 2 min p.i.", "value": "2.36 ± 0.48"},
      {"measurement": "SUV Hippocampus", "setting": "[1]; 2 min p.i.", "value": "1.87 ± 0.22"},
      {"measurement": "SUV Rest of cerebrum", "setting": "[1]; 2 min p.i.", "value": "2.63 ± 0.41"},
      {"measurement": "SUV Striatum", "setting": "[1]; 2 min p.i.", "value": "4.36 ± 0.42"},
      {"measurement": "SUV Blood", "setting": "[1]; 10 min p.i.", "value": "0.90 ± 0.08"},
      {"measurement": "SUV Cerebellum", "setting": "[1]; 10 min p.i.", "value": "0.27 ± 0.02"},
      {"measurement": "SUV Cortex", "setting": "[1]; 10 min p.i.", "value": "0.53 ± 0.02"},
      {"measurement": "SUV Hippocampus", "setting": "[1]; 10 min p.i.", "value": "0.33 ± 0.04"},
      {"measurement": "SUV Rest of cerebrum", "setting": "[1]; 10 min p.i.", "value": "0.57 ± 0.02"},
      {"measurement": "SUV Striatum", "setting": "[1]; 10 min p.i.", "value": "1.77 ± 0.08"},
      {"measurement": "SUV Blood", "setting": "[1]; 30 min p.i.", "value": "0.59 ± 0.08"},
      {"measurement": "SUV Cerebellum", "setting": "[1]; 30 min p.i.", "value": "0.12 ± 0.04"},
      {"measurement": "SUV Cortex", "setting": "[1]; 30 min p.i.", "value": "0.15 ± 0.04"},
      {"measurement": "SUV Hippocampus", "setting": "[1]; 30 min p.i.", "value": "0.14 ± 0.04"},
      {"measurement": "SUV Rest of cerebrum", "setting": "[1]; 30 min p.i.", "value": "0.22 ± 0.08"},
      {"measurement": "SUV Striatum", "setting": "[1]; 30 min p.i.", "value": "0.61 ± 0.20"},
      {"measurement": "apolar radiometabolites in plasma", "setting": "[2]; 2 and 10 min p.i.", "value": "No apolar radiometabolites were detected"},
      {"measurement": "recovered radioactivity present as intact tracer in plasma", "setting": "[2]; 2 min p.i.", "value": "about 70%"},
      {"measurement": "recovered radioactivity present as intact tracer in plasma", "setting": "[2]; 10 min p.i.", "value": "~20", "unit": "%"},
      {"measurement": "% of the ID in the cerebellum", "setting": "[3]; 2 min", "value": "~0.1", "unit": "%"},
      {"measurement": "% of the ID in the cerebrum", "setting": "[3]; 2 min", "value": "~1.0", "unit": "%"},
      {"measurement": "% of the injected dose present in the blood", "setting": "[3]; 2 min", "value": "about 6.7%"},
      {"measurement": "total brain uptake of the tracer (% ID)", "setting": "[3]; 2 min", "value": "~1.2", "unit": "%"},
      {"measurement": "% ID in the brain", "setting": "[3]; 10 min", "value": 0.2, "unit": "%"},
      {"measurement": "% ID in the brain", "setting": "[3]; 30 min", "value": 0.1, "unit": "% ID"},
      {"measurement": "% ID in the urine and the kidneys", "setting": "[3]; 30 min", "value": 19, "unit": "% ID"},
      {"measurement": "% of ID present in the liver and intestines", "setting": "[3]; 30 min", "value": 49, "unit": "%"},
      {"measurement": "% of the injected dose present in the blood", "setting": "[3]; 30 min", "value": 4.1, "unit": "%"},
      {"measurement": "apolar radiometabolites in brain", "setting": "[4]; 2 and 10 min p.i.", "value": "No apolar radiometabolites were detected"},
      {"measurement": "intact tracer in cerebrum and cerebellum", "setting": "[4]; 2 min p.i., n=1", "value": "almost all of the recovered radioactivity in cerebrum and in cerebellum was present as intact tracer"},
      {"measurement": "% of intact tracer in cerebellum", "setting": "[4]; 10 min p.i., n=1", "value": 82, "unit": "%"}
    ]}
  ]
}
